Source: patent publication US20170198027A1 (priority 2012, published 2017)
Values joined by “and” are separate entries in the source; they are usually repeats but may differ in a detail not shown here. Identical values can stand only once. Like-named read-outs stand apart in the source and are kept apart here.

How the values were obtained:
[1] = tested on: ApoE ko mice fed with high fat diet
Excerpt: 10 ApoE ko mice were fed with regular chow diet and used as negative control group. 50 ApoE ko mice were fed with high fat diet (35% kcal fat, 1% cholesterol) for 8 weeks, and then the plasma samples were collected for lipid profile measurement before the treatment. 50 ApoE ko mice were assigned into 5 groups based on the fasting overnight plasma TC and HDL level.
19 Mar. 2012 to 6 Apr. 2012: Group the mice based on the TC and HDL level and start the treatment with 3 doses of antibody APOA1 by i.p daily on the weekday (The first dose was administered by iv injection
13 Apr. 2012-14 May 2012: The treatment with antibody APOA1 was changed to i.p injection every two days (Monday, Wednesday, and Friday) per client's instruction.
Antibody products were administrated by intraperitoneal injection every two days (Monday, Wednesday, and Friday). and the positive compound was administered by p.o every day.
5.4. Body weight and blood glucose measurement: The body weight was weighed weekly during the period of treatment. The fasting overnight blood glucose was measured at the end of study by Roche glucometer.
5.5 24 h food intake measurement: 24 hours food intake for each cage was measured weekly
5.6. Plasma lipid profile measurement: About 300 ul of blood sample was collected from the orbital vein for each mouse and centrifuged at 7000 rpm for 5 min at 4° C. and the plasma lipid profile was measured by Roche Modular automatic biochemistry analyzer in DaAn Medical Laboratory
After RAAS antibody products treatment for 8 weeks, all mice were sacrificed. Measured body weight and collected blood sample for each mouse. Weighed liver weight and saved a tiny piece of liver into 4% paraformaldehyde (PFA) fixation solution for further analysis. At same time, take the photos with heart, lung, aortas and two kidneys.
Scanning the glasses slides with the Aperio ScanScope system and analyze with the image proplus software to measure the area of atherosclerotic plaque session. The results were expressed as the percentage of the total aortic surface area covered by lesions. The operation procedure of software was briefly described as follow: Converted the sys version photos into JPG version, then calibrated it and subsequently selected the red regions and then calculate the total area automatically by image proplus software.
(§1) The results were expressed as the Mean±SEM and statistically evaluated by student's t-test.

HBV = HBV mouse hydrodynamic injection model; type: in vivo, BALB/c mice
Experimental: 3.1.1. From day −7 to day 0, all 5 mice in group 4 were administrated i.p./i.v. with test article daily for 8
3″ 1.2″ On day 0, all groups of mice were hydrodynamicly injected via tail vein with pcDNA3.1/HBV plasmid DNA in a volume of normal saline equal to 8% of a mouse body weight. The plasmid DNA solution for injections was prepared one day before injection and then stored in 4GC until injection”
[…] […] For group 4, the last dosing was carried out 4 hours post HOI.
3.1.4. All mice were submandibularly blec! for plasma preparation according to the design in Table 1.
3.1.5. All mice were sacrificed and c!issectec! to obtain livers (two pieces of left lobe, one piece of middle lobe and one piece of right lobe) according to the regimen in table 1. Isolated livers were snap frozen in liquid nitrogen immec!iately upon collected.
3.2.1.1 Isolate DNA from 50 pi plasma using QIAamp 96 DNA Blood Kit. DNA was eluted with
3.2.12 Run qPCR for HBV DNA quantification.
To eliminate the influence of input HBV plasmid, primers and probe targeting HBV sequence which detect newly replicated HBV DNA and input HBV plasmid DNA and targeting pcDNA3.1 plasmid backbone sequence which only detect the input plasmid DNA were used to do real-time PCR, respectively”
HBV DNA quantity=DNA determined by HBV primer-DNA determined by plasmid primer.
Dilute the plasma 500 fold;
Detect HBsAg level in 50 pl diluted plasma by using HBsAg ELISA kit.
a) Homogenize the liver tissue with Qiagen Tissue Lyser in 10 mM Tris.HCI, 10 mM EDTA, pH7.5.
The total liver DNA was diluted to 10 ng/pl. Use 10 iJI diluted sample to run real-time PCR. HBV DNA quantity=DNA determined by HBV primer-DNA determined by plasmid primer.
a) Load 50 pg DNA for each sample. Run •1.2% agarose gel in 1×TAE.

[2] = tested on: New Zealand white rabbit fed with high fat diet; conditions: rabbit, in vivo
Experimental: The treatment groups were given APOAJ via auricular vein once a week Vehicle controls received normal saline via auricular vein once a week. […] The body weight of animal was determined every week and whole blood was drawn every three weeks. The study duration was 19 weeks. At the end of study, all animals were sacrificed. […] Male New Zealand white rabbits were used in this study. […] Blood samples were taken 12 hour after fasting before study to determine the blood lipid parameters. […] Ten to 14 rabbits were in one group. […] First dose was given 1 week before high fat diet. […] 5.2 blood lipid parameters: whole blood was drawn every three weeks. Animals were subject to 12 hour fast before taking blood. […] The upper layer of serum was then separated and examined for total cholesterol (TC), total triglyceride (TG), low density lipoprotein cholesterin (LDL-C), and high density lipoprotein cholesterin (HDL-C). Test reagents were purchased from Shanghai A: The atherosclerosis of aorta (plaque area lj) B: Liver index C: Aorta, liver, heart, arteria carotis, kidney All animals were anesthetized by 20 of ethyl carbamate and then sacrificed with air injection. Abdomen cavity was opened. Whole blood was taken from heart. Heart was harvested along with 7 em of aorta. Then other organs like liver, kidney and arteria carotis were harvested. […] Pictures were taken then. Aorta was cut from aortic arch, opened longitudinally and taken picture. […] One piece of this sample was fixed in fomlalin for further pathological analysis. The weight of liver was determined immediately. Two pieces of specimen were cut from hepatic lobe. One was kept in cryo-preservation tube for lipid analysis and another one was fixed in formalin for further pathological analysis. Animals were fast for 12 hours before taking blood samples via auricular vein. […] Test reagents were purchased from Shanghai Rong Sheng Bio-pharmaceutical Co. Ltd. The aorta was dissected and opened for 7.5 em from aortic arch longitudinally. Pictures were taken and atherosclerosis changing was analyzed.

Influenza H1N1 A/WSN/33 [3] = type: in vivo, BALB/c mice
Influenza H1N1 A/WSN/33 [4] = type: in vivo, BALB/c mice; remark: listed apart in the source
Influenza H1N1 A/WSN/33 [5] = type: in vivo, BALB/c mice; conditions: oseltamivir 30 mg/kg/day po/bid
db/db mice = tested on: db/db mice
Experimental: Fasting 6 hours and overnight blood glucose were measured. 60 db/db mice were assigned into 5 grouped based on the fasting 6 h blood glucose and body weight. […] 8 db/rn lean mice was used as negative control group […]
5.2. Study duration: This study was conducted in two periods: Period 1: Oct. 13, 2011-Feb. […] 13-Mar. 16, 2012: Test 3 antibody products
Feb. 13, 2012: Start the treatment with 3 antibodies by i.p every two days (Monday, Wednesday, Friday) after 8 weeks washout from previous treatment.
Antibody products were administrated by intraperitoneal injection and the positive compound was mixed into food at the dose 30 rng/kg/day.
5.4. Body weight and blood glucose measurement: Fasting 6 hours body weight and blood glucose concentration were measured by Roche giucometer weekly.
5.5. Plasma insulin measurement: About 30 ul of blood sample was collected from the orbital vein for each mouse and centrifuged 7000 rpm at 4° C. for 5 min. Plasma samples were saved in −70 l-::. The plasma insulin level was measured with EUSA kit (CRYSTAL, cat#90080), 5.6. Plasma lipid profile measurement: The plasma lipid profile were measured by the DaAn Clinic central lab.
5.7. Study taken down: After 14 dose antibody products treatment, all mice were sacrificed. Measure body weight and collect blood sample for each mouse. Measure liver weight and save one piece for pathology study and freeze one piece in liquid nitrogen for further analysis in the future. Save pancreas into 4% paraformaldehyde (PFA) fixation solution for future analysis.
as §1

HCV = HCV replicon dose-dependent curves (figure legends, genotype not stated); type: cell-based; conditions: FIG. 44/45 legends
Excerpt: FIGS. 44-1 through 44-18.
FIGS. 451 through 45-18-.
FIGS. 44-1 through 44-18. Dose-dependent curves (CC 50 values)
FIG. 45-1 through 45-18 Dose-dependent curves (EC50 values)

[6] = tested on: 4T1-luc breast cancer cells; conditions: vs vehicle group
Experimental: The cell suspension was carried to the animal room in an ice box. […] Totally 80 mice were selected and divided into 10 groups. All mice were monitored daily.
Tumor growth status was monitored by both IVIS Lumina II and a digital caliper twice weekly since the day after cell implantation.
For IVIS Lumina II measurement, bioluminescence intensity of primary tumor and metastatic tumor was obtained according to the following procedure:
1. Tumor-bearing mice were \Neighted and intra peritoneally administered luciferin at a dose of 150 mg/kg (10 ml/kg);
2. After 10 min, mice were pre-anesthetized with the mixture of oxygen and isoflurane. […]
3. ROI data was calculated with IVIS Lumina II software and relative ROI was calculated to express the tumor growth status. […]
Tumor size was measured twice a week in two dimensions using a caliper. and the tumor volume (V) was expressed in mm3 using the formula: V=0.5 a×b2 where a and bare the long and short diameters […]
2. […] Body weights were measured and recorded twice weekly.
TGI (tumor growth inhibition, in percent) was calculated according to the following equation: […]
T/C (%) was calculated based on the tumor volume data collected on Day 27.
The difference between the mean values of tumor volume in treatment and vehicle groups was analyzed for significance using one way ANOVA test at each time point after log transformation.

`CC(C)c1c(C(=O)Nc2ccccc2)c(-c2ccccc2)c(-c2ccc(F)cc2)n1CC[C@@H](O)C[C@@H](O)CC(=O)O` [Atorvastatin, reference compound] was tested, and the “arteriosclerosis plaque lesion in the region of thoracic aorta (root plaque area)” value ([1]; APOA1 mid dose and low dose, not significant vs vehicle) was “trend of reducing the arteriosclerosis plaque lesion”, the “fasting overnight blood glucose” value ([1]; after 8 weeks treatment vs vehicle) was “no effect” and the “atherosclerosis plaque lesion area of aorta” value ([1]; after 8 weeks treatment, APOA1 low dose) was “significant reduced the plaque lesion area”. The Liver weight ([1]; atorvastatin 20 mg/kg, after 8 weeks treatment) was “reduced liver weight and the ratio of liver/body weight significantly”, the “atherosclerosis plaque lesion from the aortic root to right renal artery” value ([1]; atorvastatin p=0.08) was “trend of reducing the atherosclerosis plaque lesion” and the body weight ([1]; vs vehicle group, atorvastatin after 5 weeks treatment) was “significantly reduced the body weight”.
In the case of `C=C1[C@H](CO)[C@@H](O)C[C@@H]1n1cnc2c(=O)[nH]c(N)nc21` [ETV, Entecavir], the “HBV intermediate DNA in livers (real-time PCR)” value (HBV; ETV day 5, RASS 8 prophylactic treatment day 7) is reported as “significantly decreased the HBV intermediate DNA in liver”, the “ssDNA, HBV replication intermediate DNA in livers (southern blot)” value (HBV; RASS 8 prophylactic treatment or ETV treatment) is reported as “decreased dramatically” and the “inhibition to the HBV replication (plasma)” value (HBV; therapeutically treated, from day 3 post HDI to end) is reported as “significant inhibition”. The “HBsAg level in plasma (ELISA)” value (HBV; within 5 days post HBV HDI, RASS 8 therapeutic and prophylactic) was “didn't have significant inhibition”.
`CC(C)c1c(C(=O)Nc2ccccc2)c(-c2ccccc2)c(-c2ccc(F)cc2)n1CC[C@@H](O)C[C@@H](O)CC(=O)O` [Liptor, reference compound] was tested, and the “calcification, pathological examination” value [2] was “one animal with calcification”.
For `CCOC(=O)C1=C[C@@H](OC(CC)CC)[C@H](NC(C)=O)[C@@H](N)C1` [Oseltamivir, Oseltamivir phosphate (prodrug)], the “body weights dropped by” value (Influenza H1N1 A/WSN/33 [3]; mouse, in vivo) was under 15%, the survival (Influenza H1N1 A/WSN/33 [3]; oseltamivir 1 mg/kg orally twice daily for 8 days) was “survived and 4 out of 5” and the “Mean day to death ± S.D.” value (Influenza H1N1 A/WSN/33 [4]; H1N1 + Oseltamivir 1 mg/kg, P<0.01 vs vehicle) was over 10 ± 0.0 days. The survival (Influenza H1N1 A/WSN/33 [4]; oseltamivir po/bid) was “survived completely” and the survival (Influenza H1N1 A/WSN/33 [5]) was “survived completely”.
For `CCOC(=O)C1=C[C@@H](OC(CC)CC)[C@H](NC(C)=O)[C@@H](N)C1` [Oseltarnivir], the Survivor/total (Influenza H1N1 A/WSN/33 [3]; H1N1 + Oseltamivir po BID, dose cell prints 0.2/0.4 ml/mouse) was 4/4 and the “Mean day to death ± S.D.” value (Influenza H1N1 A/WSN/33 [3]; H1N1 + Oseltamivir po BID, dose cell prints 0.2/0.4 ml/mouse, P<0.001 vs vehicle) was over 14 ± 0.0 days.
With `CCc1ccc(CCOc2ccc(CC3SC(=O)NC3=O)cc2)nc1` (stereo not drawn) [Pioglitazone] the “dead mice: kidney infection” value (db/db mice; Part 1, Positive group (30 mg/kg/day in food)) was 1, the “dead mice: kidney bleeding” value (db/db mice; db/db, mouse, in vivo, 32 days) was 1 and the “fasting overnight BG” value (db/db mice; period 1) was “significantly lower blood glucose”. The body weight (db/db mice; period 1, AFOD 3 doses after 3 weeks, pioglitazone after 2 weeks) was “significantly increased body weight”, the “blood glucose (fasting 6 h)” value (db/db mice; period 1, pioglitazone after 1 week, AFOD low dose after 8 doses) was “significantly reduced blood glucose” and the “blood glucose (fasted 6 h)” value (db/db mice; period 2) was “significant difference on blood glucose”. For the same compound, the “liver weight and ratio of liver/body weight” value (db/db mice; period 2) was “effect on reducing the ratio”, the “overnight fasting blood glucose” value (db/db mice; period 2, after 4 weeks treatment) was “significantly reduced the fasting overnight blood glucose level” and the plasma triglyceride level (db/db mice; period 2, after 5 weeks treatment) was “significantly lowered”. For the same compound, the body weight (db/db mice; period 2, vs vehicle group) was “effect on increasing body weight” and the “plasma insulin resistance (HOMA-IR)” value (db/db mice; period 2, AFOD after 14 doses (p=0.054), pioglitazone after 5 weeks (p=0.051)) was “trend on improving insulin resistance”.
`NC(=O)c1ncn([C@@H]2O[C@H](CO)[C@@H](O)[C@H]2O)n1` [Ribavirin] was tested, and the “inhibition of HCV” value (HCV) was 50%.
In the case of `Nc1ccn([C@@H]2O[C@H](CO)[C@@H](O)C2(F)F)c(=O)n1` [gemcitabine, reference compound], the “one-way ANOVA analysis on tumor volume changes” value ([6]; Day 20) is reported as “*′**” and the tumor volume ([6]; gemcitabine since day 13) is reported as “significant tumor volume reduction”.
With APOA 1 the “Wounded (number of mice)” value ([1]; APOA 1 high dose group) was 1, the “Dead (number of mice)” value ([1]; APOA 1 high dose group, reason: Kidney infection & i.v injection) was 2 and the “Wounded (number of mice)” value ([1]; APOA 1 mid dose group) was 1. For the same compound, the “Dead (number of mice)” value ([1]; APOA 1 mid dose group, reason: Blood collection) was 1.
